# Assay results: patent US8722910B2, “Diyne compositions” (Evolva AG, priority 2009, dated 2014)
# Read-outs that look alike come from different tables or passages of the source.
# Assays:
# [1] = Stability of diyne salts on storage (HPLC content); assay type: physicochemical
# Procedure: Potassium (Z)-14-(furan-2-yl)tetradeca-9-en-11,13-diynoate was kept as a crystalline solid for 6 month at 2-8° C. The content of potassium (Z)-14-(furan-2-yl)tetradeca-9-en-11,13-diynoate was determined by HPLC against a reference sample kept at −20° C. After 6 months of storage characteristics such as colour, water content, XRPD profile, of the solid had not changed and it was still a beige solid. […] Also no change in the impurity profile was observed after 6 months storage.
# Potassium (Z)-14-(furan-2-yl)tetradeca-9-en-11,13-diynoate was also kept as a crystalline solid for 6 month at 25° C., 60% RH. Analysis was performed as described above. After 6 months of storage characteristics of the solid has not changed and it was still a beige solid. […] Also no change in the impurity profile was observed after 6 months storage.
# Potassium (Z)-14-(furan-2-yl)tetradeca-9-en-11,13-diynoate was also kept as a crystalline solid for 6 month at 40° C., 75% RH. Analysis was performed as described above. After 6 months of storage the appearance of the solid had changed to a brown solid. Furthermore, a decrease in the content of potassium (Z)-14-(furan-2-yl)tetradeca-9-en-11,13-diynoate to 96% was observed as analysed by HPLC.
# Sodium (Z)-14-(furan-2-yl)tetradeca-9-en-11,13-diynoate was kept as an amorphous solid at room temperature. […] Furthermore the salt was dissolved in an aqueous solution and already after few days the content of sodium (Z)-14-(furan-2-yl)tetradeca-9-en-11,13-diynoate was reduced by 35%, thus proving strong instability of the amorphous salt form.
# C. albicans [2] = assay: Rat model of systemic candidiasis, single oral administration, kidney burden; assay type: in vivo; details: rats
# C. albicans [3] = assay: Rat model of systemic candidiasis, single intravenous infusion, liver burden; assay type: in vivo; details: rats
# [4] = tested on: Enterobacter faecalis 29212; assay: In vitro Antibacterial Activity; assay type: cell-based
# Escherichia coli 700 = assay: In vitro Antibacterial Activity; assay type: cell-based
# Coccidioides spp. = assay: microbe, parasite or virus in culture; assay type: cell-based; details: Coccidioides, 48 h
# B. dermatitidis = assay: Susceptibility of clinical dimorphic fungi (MIC); assay type: cell-based; details: Blastomyces dermatitidis; B. dermatitidis (n = 30); CLSI M38-A2; 50% growth reduction; MIC read at 96 h
# H. capsulatum = assay: microbe, parasite or virus in culture; assay type: cell-based; details: Histoplasma capsulatum, 120 h
# [5] = tested on: C. glabrata, Fluconazole, Voriconazole, Itraconazole and/or Caspofungin resistant isolates; assay: Susceptibility of resistant clinical isolates (MIC, broth dilution); assay type: cell-based; details: Nakaseomyces glabratus; C. glabrata resistant (n = 21): isolates resistant to Fluconazole, Itraconazole, Voriconazole and Caspofungin; read-out: MIC90
# Procedure: (§1) The efficacy of compound IV″ was investigated on 563 clinical isolates of 33 human fungal pathogens. […] For species with n≧10, the MIC90 (MIC, minimal inhibitory concentration) is given as ng/ml. For species with n≦10, the MIC range is given as ng/ml. 24 h and 48 h reads are indicated (Table 1).
# (§2) The MIC90 was calculated for the indicated species.
# C. albicans [6] = assay: Fatty acid competition (antagonism) in 96-well plates; details: 48 h
# C. dubliniensis = assay: Susceptibility of clinical isolates (MIC, broth dilution); assay type: cell-based; details: Candida dubliniensis; C. dubliniensis (n = 25); M27-A3, 24 hrs; read at 50% inhibition (potassium salt, Voriconazole), 100% (Amphotericin), MEC (Caspofungin); read-out: MIC90
# Procedure: as §1
# (§3) The in vitro efficacy of antifungal compounds is determined in susceptibility assays, which are indicative for the spectrum and potency of a compound. Susceptibilities are reported as minimal inhibitory concentrations (MIC, as ng/ml or μg/ml) required to inhibit growth to a defined degree compared to the drug free control. The MIC90 defines the MIC required to inhibit growth for ≧90% of the strains of a population tested.
# as §2
# C. tropicalis = assay: as above; assay type: cell-based; details: Candida tropicalis; C. tropicalis (n = 35); M27-A3, 24 hrs; read at 50% inhibition (potassium salt, Voriconazole), 100% (Amphotericin), MEC (Caspofungin); read-out: MIC90
# Procedure: as §1, §3, §2
# C. lusitaniae [7] = assay: as above; assay type: cell-based; details: Clavispora lusitaniae; C. lusitaniae (n = 24); M27-A3, 24 hrs; read at 50% inhibition (potassium salt, Voriconazole), 100% (Amphotericin), MEC (Caspofungin); read-out: MIC90
# Procedure: as §1, §3, §2
# C. krusei [8] = assay: as above; assay type: cell-based; details: Pichia kudriavzevii; C. krusei (n = 27); M27-A3, 24 hrs; read at 50% inhibition (potassium salt, Voriconazole), 100% (Amphotericin), MEC (Caspofungin); read-out: MIC90
# Procedure: as §1, §3, §2
# C. parapsilosis [9] = assay: as above; assay type: cell-based; details: Lodderomyces parapsilosis
# Procedure: as §1, §3, §2
# C. glabrata [10] = assay: as above; assay type: cell-based; details: Nakaseomyces glabratus
# Procedure: as §1, §3, §2
# C. krusei [11] = assay: In vitro antifungal activity vs. yeasts (MIC/MFC); assay type: cell-based; details: Pichia kudriavzevii; C. krusei (n = 1); 90% inhibition endpoint
# C. parapsilosis [12] = assay: In vitro antifungal activity vs. yeasts (MIC/MFC); assay type: cell-based; details: Lodderomyces parapsilosis; C. parapsilosis (n = 2); 90% inhibition endpoint
# ergosterol biosynthesis = assay: 13C-acetate incorporation into ergosterol; assay type: cell-based, Candida albicans; details: drug at about its MIC, added after the first 15 minutes
# C. lipolytica = assay: In vitro antifungal activity vs. yeasts (MIC/MFC); assay type: cell-based; details: Yarrowia lipolytica
# Malassezia furfur = assay: In vitro antifungal activity vs. yeasts (MIC/MFC); assay type: cell-based; details: Malassezia furfur
# C. lusitaniae [13] = assay: In vitro antifungal activity vs. yeasts (MIC/MFC); assay type: cell-based; details: Clavispora lusitaniae
# all Candida strains = assay: MIC range over all Candida strains tested; assay type: cell-based; details: Table 13 strains
# C. guilliermondii = assay: In vitro antifungal activity vs. yeasts (MIC/MFC); assay type: cell-based; details: Meyerozyma guilliermondii; C. guilliermondii (n = 1); 90% inhibition endpoint
# C. glabrata [14] = assay: In vitro antifungal activity vs. yeasts (MIC/MFC); assay type: cell-based; details: Nakaseomyces glabratus; C. glabrata (n = 1); 90% inhibition endpoint
# Candida albicans = assay: In vitro antifungal activity vs. yeasts (MIC/MFC); assay type: cell-based; details: Candida albicans (n = 8); 90% inhibition endpoint
# C. albicans [15] = assay: Effect on the morphology of growing Candida albicans cultures; assay type: cell-based; details: inhibiting concentrations
# [16] = tested on: Staphylococcus aureus 29213; assay: In vitro Antibacterial Activity; assay type: cell-based
# A. versicolor = assay: Susceptibility of clinical Aspergillus isolates (MIC); assay type: cell-based; details: Aspergillus versicolor; A. versicolor (n = 3); CLSI M38-A2; 50% growth inhibition; 24 h; read-out: MIC50
# Procedure: as §1
# (§4) Susceptibilities were determined according to the CLSI reference method M38-A2.
# A. fumigatus = assay: as above; assay type: cell-based; details: Aspergillus fumigatus; A. fumigatus (n = 20); CLSI M38-A2; 50% growth inhibition; 24 h; read-out: MIC50
# Procedure: as §1, §4
# A. nidulans = assay: as above; assay type: cell-based; details: 24 h
# Procedure: as §1, §4
# A. niger = assay: as above; assay type: cell-based; details: A. niger (n = 6), CLSI M38-A2, 50% growth inhibition, 24 h, read-out: MIC50
# Procedure: as §1, §4
# A. flavus = assay: as above; assay type: cell-based; details: Aspergillus flavus; A. flavus (n = 2); CLSI M38-A2; 50% growth inhibition; 24 h; read-out: MIC50
# Procedure: as §1, §4
# A. terreus = assay: as above; assay type: cell-based; details: Aspergillus terreus; A. terreus (n = 5); CLSI M38-A2; 50% growth inhibition; 24 h; read-out: MIC50
# Procedure: as §1, §4
# C. albicans [17] = assay: Susceptibility of clinical isolates (MIC, broth dilution); assay type: cell-based; details: Candida albicans; C. albicans (n = 20); M27-A3, 24 hrs; read at 50% inhibition (potassium salt, Voriconazole), 100% (Amphotericin), MEC (Caspofungin); read-out: MIC90
# Procedure: as §1, §3, §2
compound,measurement,setting,value
"O=C([O-])CCCCCCC/C=C\C#CC#Cc1ccco1.[Na+] [Compound V″, sodium (Z)-14-(furan-2-yl)tetradeca-9-en-11,13-diynoate]",appearance after storage,"[1]; amorphous solid at room temperature, short term storage",the colour darkened
same,reduction of content in aqueous solution,"[1]; aqueous solution, after few days",35%
same,decrease of kidney fungal burden (CFU per gram tissue),"C. albicans [2]; single oral dose 17 mg/kg, 6 h",57%
same,decrease of liver fungal burden (CFU per gram tissue),"C. albicans [3]; single intravenous infusion 12 mg/kg, 24 h",93%
"CC1(C)S[C@@H]2[C@H](NC(=O)[C@H](N)c3ccccc3)C(=O)N2[C@H]1C(=O)O [Ampicillin, reference compound]",MIC90,[4],0.78 µg/mL
same,MIC90,Escherichia coli 700,3.12 µg/mL
CC[C@H](C)C[C@H](C)CCCCCCCCC(=O)N[C@H]1C[C@@H](O)[C@@H](NCCN)NC(=O)[C@@H]2[C@@H](O)CCN2C(=O)[C@H]([C@H](O)CCN)NC(=O)[C@H]([C@H](O)[C@@H](O)c2ccc(O)cc2)NC(=O)[C@@H]2C[C@@H](O)CN2C(=O)[C@H]([C@@H](C)O)NC1=O [Caspofungin],MIC90,Coccidioides spp.,0.5 µg/mL
same,MIC90,B. dermatitidis,4 µg/mL
same,MIC90,H. capsulatum,2 µg/mL
same,MIC90,[5],2 µg/mL
same,effect of oleic acid / stearic acid on susceptibility,C. albicans [6],oleic acid did not decrease the susceptibility
same,MIC90,C. dubliniensis,1 µg/mL
same,MIC90,C. tropicalis,1 µg/mL
same,MIC90,C. lusitaniae [7],2 µg/mL
same,MIC90,C. krusei [8],2 µg/mL
same,MIC90,"C. parapsilosis [9]; C. parapsilosis (n = 37), M27-A3, 24 hrs, read at 50% inhibition (potassium salt, Voriconazole), 100% (Amphotericin), MEC (Caspofungin), read-out: MIC90",8 µg/mL
same,MIC90,"C. glabrata [10]; C. glabrata (n = 25), M27-A3, 24 hrs, read at 50% inhibition (potassium salt, Voriconazole), 100% (Amphotericin), MEC (Caspofungin), read-out: MIC90",2 µg/mL
"OC(Cn1cncn1)(Cn1cncn1)c1ccc(F)cc1F [Fluconazole, reference compound]",MIC,C. krusei [11],16 µg/mL
same,MIC,C. parapsilosis [12],1 µg/mL
same,net biosynthesis of ergosterol (13C-acetate incorporation),ergosterol biosynthesis,inhibited the incorporation of acetate into ergosterol
same,MIC,C. lipolytica,0.125 µg/mL
same,MIC,Malassezia furfur,0.125 µg/mL
same,MIC,C. lusitaniae [13],0.125 µg/mL
same,MIC range for all Candida strains,all Candida strains,0.125 to 16 µg/mL
same,MIC,C. guilliermondii,4 µg/mL
same,MIC,C. glabrata [14],2 µg/mL
same,"reduction of tissue burden (cfu/g tissue), comparator","C. albicans [2]; vs vehicle at 24 hours, dose not given",90%
same,"reduction of tissue burden (cfu/g tissue), comparator","C. albicans [3]; liver, vs vehicle at 24 hours, dose not given",93%
same,MIC,Candida albicans,1 µg/mL
same,effect on hyphal tube formation,C. albicans [15]; microscopy,did not affect hyphal tube formation
same,effect on cell growth,C. albicans [15]; microscopy and MTT,permitted fungal growth (albeit at a reduced rate)
Gentamicin [reference compound],MIC90,[16],Gentamicin—0.78 μg/ml
C[C@@H](c1ncncc1F)[C@](O)(Cn1cncn1)c1ccc(F)cc1F [Voriconazole],MIC90,Coccidioides spp.,0.125 µg/mL
same,MIC90,B. dermatitidis,0.25 µg/mL
same,MIC90,H. capsulatum,0.125 µg/mL
same,MIC50,A. versicolor,0.25 µg/mL
same,MIC50,A. fumigatus,0.25 µg/mL
same,MIC50,A. nidulans,0.125 µg/mL
same,MIC50,A. niger,1 µg/mL
same,MIC50,A. flavus,0.5 µg/mL
same,MIC50,A. terreus,0.25 µg/mL
same,effect of oleic acid / stearic acid on susceptibility,C. albicans [6],oleic acid did not decrease the susceptibility
same,MIC90,C. albicans [17],0.03 µg/mL
same,MIC90,C. dubliniensis,0.016 µg/mL
same,MIC90,C. tropicalis,0.03 µg/mL
same,MIC90,C. lusitaniae [7],0.03 µg/mL
same,MIC90,C. krusei [8],0.5 µg/mL
same,MIC90,C. parapsilosis [9]; 24 h,0.125 µg/mL
same,MIC90,C. glabrata [10]; 24 h,0.125 µg/mL
